Measured values as given in patent US20190321417A1, “BACTERIAL PROBIOTIC TO DETOXIFY HERBICIDES AND INSECTICIDES” (PRESIDENT AND FELLOWS OF HARVARD COLLEGE, priority 2018, published 2019).

Assays:
[1] = tested on: Nasonia; test: Herbicide toxicity (LC50) in adult Nasonia from generationally-atrazine exposed and naïve populations; assay type: in vivo, Nasonia virtipennis; conditions: 24 hr old adults
Text: (§1) FIGS. 3A-3C present data that show atrazine resistance. (FIG. 3A) The median lethal concentration of atrazine to kill half of the population (LC50) in ppm for each generation of the Naïve populations (open circles) and the Atrazine exposed populations (black circles). (FIG. 3B) The median lethal concentration of atrazine to kill half of the population (LC50) in ppm for each generation of the Naïve populations (open circles) and the Atrazine exposed populations (black circles) when grown Germfree, gnotobiotic. Without bacteria, both populations experience increased toxicity of atrazine, over 100 fold greater than normal generations' LC50. (FIG. 3C) LC50 survival of 24 hrs old adult Nasonia virtipennis were sprayed with a sterile PBS solution (squares), S. marcescens TVIT01 (8×10^6 cells/ml, circles), or P. protegens TVIT02 (3×10^8 cells/ml, triangles) and incubated for 6 hr before being fed 100 ppm of atrazine sugar solution (A) or only sugar solution (C), and their survival was calculated 48 hrs later. Three replicates of 50 individuals are for each treated group (Two-tailed t test, *P<0.05).
Toxicity experiments were conducted at a range of concentrations for both atrazine and Glyphosate to test the effect that the new microbiome has on increasing resistance. 50 adults (24 hr old) were put into vials from either the generationally-atrazine exposed populations or the naïve populations and exposed to atrazine or glyphosate at parts per million concentrations of 0 ppm, 10 ppm, 30 ppm, 100 ppm, 200 ppm, 400 ppm, 600 ppm, 800 ppm, 1000 ppm. Mortality was recorded after 0, 24, 48, 72, 96, 120, 168 hours (from atrazine exposure point). These were conducted in concurrent replicate experiments.

[2] = tested on: Nasonia; test: Atrazine toxicity in germfree, gnotobiotic Nasonia populations; assay type: in vivo, Nasonia virtipennis; conditions: both exposed and naïve populations, 0-30 ppb atrazine, up to 96 hr
Text: as §1
To test the role of the microbiome as a detoxicant to herbicides, both populations were tested in germfree, gnotobiotic, conditions. Survival was measured when exposed atrazine concentrations of 0, 5 ppb, 10 ppb, 15 ppb, 25 ppb, 30 ppb for up to 96 hr. […]

[3] = generationally-atrazine exposed populations

SMILES | median lethal concentration to kill half of the population (LC50) [1, 3] | median lethal concentration to kill half of the population (LC50) ([1]; naïve populations) | increase in toxicity with bacteria removed, compared to normal [2]
CCNc1nc(Cl)nc(NC(C)C)n1 [atrazine, Atrazine] | 562 ppm | 62 ppm | > 100 fold
O=C(O)CNCP(=O)(O)O [Glyphosate, N-(phosphonomethyl)glycine] | 315 ppm | 148 ppm | –
